Drawing on patent US20150353495A1 (PORTOLA PHARMACEUTICALS, INC., priority 2010, published 2015), this text covers IC50 for twelve compounds.

pIC50: −log10 of the molar value.

What all share (type): biochemical
One test deals with T1, JAK3 (Homo sapiens, UniProt P52333).
T1 construct: 5 μl of catalytic domain recombinant Kinase enzyme+Tyr peptide substrate (Invitrogen, CA); purchased Invitrogen
Put plainly: Z'-LYTE kinase assay JAK3. Summed up:
(§1)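 Read-out is FRET fluorescence between coumarin and fluorescein on a Tyr6 peptide, lost when the development protease cleaves unphosphorylated substrate. Kinase reaction used recombinant catalytic domain with ATP, 1 h at room temperature, 1% DMSO.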

Another test addresses T2, JAK2 (Homo sapiens, UniProt O60674).
T2 construct: 5 μl of catalytic domain recombinant Kinase enzyme+Tyr peptide substrate (Invitrogen, CA); purchased Invitrogen
The test can be described thus: Z'-LYTE kinase assay JAK2. Summed up: as §1

A further test deals with T3, TYK2 (Homo sapiens, UniProt P29597).
T3 construct: 5 μl of catalytic domain recombinant Kinase enzyme+Tyr peptide substrate (Invitrogen, CA); purchased Invitrogen
T3 sequence (P29597 897-1176 limits assumed): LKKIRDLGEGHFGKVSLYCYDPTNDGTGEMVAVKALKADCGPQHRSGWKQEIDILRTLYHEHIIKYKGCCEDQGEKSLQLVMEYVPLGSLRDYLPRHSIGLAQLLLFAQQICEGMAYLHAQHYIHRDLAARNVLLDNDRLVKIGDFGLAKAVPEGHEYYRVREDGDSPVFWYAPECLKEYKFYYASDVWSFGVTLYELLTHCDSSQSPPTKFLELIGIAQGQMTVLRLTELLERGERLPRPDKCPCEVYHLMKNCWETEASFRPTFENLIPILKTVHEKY
Put plainly: Z'-LYTE kinase assay TYK2. On the procedure:
JAK and TYK2 tyrosine phosphorylation activity is measured using the Z′-LYTE™ Technology developed by Invitrogen Corporation (Carlsbad, Calif.). For JAK1, JAK2 and JAK3 the Z′-LYTE™ Kinase Assay Kit-Tyr6 Peptide (part number PV4122) was used. For TYK2 the Z′-LYTE™ Kinase Assay Kit-Tyr6 Peptide (part number PV3192) was used. The Z′-LYTE™ biochemical assay employs a fluorescence resonance energy transfer (FRET) coupled-enzyme format and is based on the differential sensitivity of phosphorylated and non-phosphorylated peptides to proteolitic cleavage. The assay uses a synthetic peptide substrate that is labelled with a donor fluorophore (coumarin) and an acceptor fluorophore (fluorescein) that make up a FRET pair. In the primary reaction (the Kinase Reaction), the kinase transfers the γ-phosphate of ATP to a single tyrosine residue on the substrate, while the presence of a kinase inhibitor in the primary reaction suppresses phosphorylation. In the secondary reaction (the Development Reaction), a site-specific protease (the Development Reagent) is added. The development buffer quenches the Kinase Reaction, while the protease recognizes and cleaves non-phosphorylated Z′-LYTE™ peptide substrate. Cleavage disrupts FRET between the donor and acceptor fluorophores on the non-phosphoryleted substrate, while uncleaved, phosphorylated substrate maintains FRET.
To test the ability of candidate molecules to inhibit JAK tyrosine phosphorylation activity, molecules are reconstituted in 100% DMSO and serially diluted 1:10 in polypropylene v-bottom microtiter plates. The candidate molecules are then diluted 1:25 into kinase buffer and 2.5 μl transferred into duplicate wells of a 384 well low volume black microtiter assay plate (Corning, USA). The final DMSO concentration in the assay is 1%. The kinase reaction contains 2.5 μl of a candidate molecule, 5 μl of catalytic domain recombinant Kinase enzyme+Tyr peptide substrate (Invitrogen, CA) and 2.5 μl ATP (Invitrogen, CA). The kinase reaction is allowed to procede for 1 hour at room temperature. The protease reaction is initiated by the addition of 5 μl Development Reagent (Invitrogen, CA). After 1 hour incubation at room temperature the fluorescence is measured using a FlexStation plate reader (Molecular Devices, Sunnyvale, Calif.). The reader settings used are as follows: Fluorescence mode, endpoint, top read, excitation 400 nm, emission 445 nm and 520 nm, Auto Cutoff 435 nm and 515 nm, PMT sensitivity high, 6 reads per well Inhibition of JAK kinase activity is calculated as the percent phosphorylation of substrate in the presence of inhibitor compared to the percent phosphorylation of substrate in the absence of inhibitor. IC50's were derived using Xlfit 4.3 (IDBS, UK), 4 parameter logistic model 205: Y=(A+4B-A)/(1+((C/x)AD)))).

For a further test, the target named is T4, JAK1 (Homo sapiens, UniProt P23458).
T4 construct: 5 μl of catalytic domain recombinant Kinase enzyme+Tyr peptide substrate (Invitrogen, CA); purchased Invitrogen
Put plainly: Z'-LYTE kinase assay JAK1. Summed up: as §1

T2 sequence (O60674 849-1124 limits assumed): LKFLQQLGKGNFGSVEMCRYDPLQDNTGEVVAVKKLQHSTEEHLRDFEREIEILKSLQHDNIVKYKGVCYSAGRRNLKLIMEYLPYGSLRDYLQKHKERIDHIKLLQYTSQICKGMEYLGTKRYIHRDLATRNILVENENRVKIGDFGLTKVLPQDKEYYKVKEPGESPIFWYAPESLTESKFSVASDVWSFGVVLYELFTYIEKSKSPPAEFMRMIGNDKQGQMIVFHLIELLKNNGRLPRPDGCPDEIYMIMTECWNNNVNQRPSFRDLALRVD
T1 sequence (P52333 822-1111 limits assumed): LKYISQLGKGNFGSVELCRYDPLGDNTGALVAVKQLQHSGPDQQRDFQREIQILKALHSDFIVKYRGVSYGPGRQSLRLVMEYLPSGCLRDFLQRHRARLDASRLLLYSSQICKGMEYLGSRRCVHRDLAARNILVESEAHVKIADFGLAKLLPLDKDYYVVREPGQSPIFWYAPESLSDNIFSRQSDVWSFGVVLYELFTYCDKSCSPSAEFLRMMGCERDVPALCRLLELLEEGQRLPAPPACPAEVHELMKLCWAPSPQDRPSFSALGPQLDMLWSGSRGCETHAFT
T4 sequence (P23458 875-1153 limits assumed): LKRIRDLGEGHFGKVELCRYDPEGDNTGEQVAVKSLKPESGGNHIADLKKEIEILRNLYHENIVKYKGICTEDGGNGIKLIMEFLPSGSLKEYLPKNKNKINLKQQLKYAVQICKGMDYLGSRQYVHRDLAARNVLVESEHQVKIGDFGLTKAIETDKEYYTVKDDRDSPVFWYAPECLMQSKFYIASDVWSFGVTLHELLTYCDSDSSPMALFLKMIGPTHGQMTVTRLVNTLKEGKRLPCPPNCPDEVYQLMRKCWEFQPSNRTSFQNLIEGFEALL

`CCC(=O)N1CCC(c2ccc(Nc3cc(N[C@H](C)c4ccccc4)c(C(N)=O)cn3)cc2)CC1` [Example 199, (R)-4-(1-phenylethylamino)-6-(4-(1-propionylpiperidin-4-yl)phenylamino)nicotinamide]: the negative logarithm of the IC50 (pIC50) on JAK3 was 7.00 to 8.00; against JAK2 it was 6.00 to 7.00; against TYK2 it was less than 6.00; against JAK1, less than 6.00.
`CC(=O)Nc1cccc(Nc2nc(N)c(C(N)=O)cc2F)c1` [Example 21, 6-(3-acetamidophenylamino)-2-amino-5-fluoronicotinamide]: the pIC50 against JAK3, at JAK2, against TYK2 and at JAK1 was less than 6.00 each time.
For `CN(C)C(=O)c1ccc(Nc2cc(NCc3ccccc3)c(C(N)=O)cn2)cc1Cl` [Example 437, 4-(benzylamino)-6-(3-chloro-4-(dimethylcarbamoyl)phenylamino)nicotinamide], the pIC50 is 8.00 to 9.00 against JAK3, 6.00 to 7.00 at JAK2, 6.00 to 7.00 against TYK2 and less than 6.00 against JAK1.
In the case of `CC(=O)N1CCN(c2ccc(Nc3cc(NCc4ccc5c(c4)OCO5)c(C(N)=O)cn3)cc2)CC1` [Example 254, 6-(4-(4-acetylpiperazin-1-yl)phenylamino)-4-(benzo[d][1,3]dioxol-5-ylmethylamino)nicotinamide], the pIC50 was 7.00 to 8.00 against JAK3, 6.00 to 7.00 against JAK2, less than 6.00 at TYK2 and less than 6.00 on JAK1.
Regarding `Cc1cc(Nc2cc(NCc3ccccc3)c(C(N)=O)cn2)ccc1C(=O)N1CCOCC1` [Example 447, 4-(benzylamino)-6-(3-methyl-4-(morpholine-4-carbonyl)phenylamino)nicotinamide], the pIC50 is 8.00 to 9.00 at JAK3, 7.00 to 8.00 on JAK2, 6.00 to 7.00 against TYK2 and 6.00 to 7.00 against JAK1.
For the compound `CC(=O)N1CCN(c2ccc(Nc3cc(NCCc4ccccc4)c(C(N)=O)cn3)cc2)CC1` [Example 29], the pIC50 against JAK3 is 7.00 to 8.00; at JAK2, 6.00 to 7.00; at TYK2 it was 6.00 to 7.00; on JAK1 it was less than 6.00.
On to `Cc1cc(Nc2cc(NCc3ccccc3)c(C(N)=O)cn2)ccc1C(=O)N1CCCC1` [Example 446, 4-(benzylamino)-6-(3-methyl-4-(pyrrolidine-1-carbonyl)phenylamino)nicotinamide], for which the pIC50 is 8.00 to 9.00 at JAK3, 7.00 to 8.00 against JAK2, 6.00 to 7.00 at TYK2 and 6.00 to 7.00 against JAK1.
For the compound `N#CCOc1ccc(Nc2cc(NCc3ccccc3)c(C(N)=O)cn2)cc1` [Example 384], the pIC50 at JAK3 was 8.00 to 9.00; against JAK2, 6.00 to 7.00; against TYK2 it was less than 6.00; at JAK1 it was 6.00 to 7.00.
Regarding `Cc1cc(Nc2cc(NCc3cncc(F)c3)c(C(N)=O)cn2)ccc1C(=O)N(C)C` [Example 297], the pIC50 is 8.00 to 9.00 against JAK3, 7.00 to 8.00 against JAK2, 6.00 to 7.00 on TYK2 and 6.00 to 7.00 against JAK1.
`CC(=O)N1CCN(c2ccc(Nc3cc(NC4CCCC4)c(C(N)=O)cn3)cc2)CC1` [Example 239, 6-(4-(4-acetylpiperazin-1-yl)phenylamino)-4-(cyclopentylamino)nicotinamide]: the pIC50 against JAK3 was 7.00 to 8.00; against JAK2, 6.00 to 7.00; at TYK2 it was 7.00 to 8.00; against JAK1 it was 6.00 to 7.00.
With `NC(=O)c1cc(F)c(Nc2cccc(-n3nccn3)c2)nc1NC1CCCC1` [Example 22, 6-(3-(2H-1,2,3-triazol-2-yl)phenylamino)-2-(cyclopentylamino)-5-fluoronicotinamide], the pIC50 was 6.00 to 7.00 at JAK3, less than 6.00 on JAK2, less than 6.00 at TYK2 and less than 6.00 against JAK1.
As to `CCC(=O)N1CCC(c2ccc(Nc3cc(NCc4ccccc4)c(C(N)=O)cn3)cc2)CC1` [Example 198, 4-(benzylamino)-6-(4-(1-propionylpiperidin-4-yl)phenylamino)nicotinamide], the pIC50 at JAK3 was 8.00 to 9.00; against JAK2 it was 6.00 to 7.00; on TYK2, 6.00 to 7.00; against JAK1, less than 6.00.

Usually pIC50 stands for the negative decadic logarithm of the IC50, by convention in mol/L.
